Test results reported in patent US10483329B2, “Hole transporting material, hole transporting layer, OLED display panel electronic device comprising the same” (SHANGHAI TIANMA AM-OLED CO., LTD., priority 2016, dated 2019).
In brackets after ≈: the same amount, converted by molar mass.

Assay: Solubility in NMP
Assay type: physicochemical
Details: organic solvent or mixture; solvent NMP (N-methylpyrrolidone)

| Structure (SMILES) | solubility |
| --- | --- |
| Cc1cccc(C)c1-c1ccc(N(c2ccc3c(c2)C(C)(C)c2ccccc2-3)c2ccc3c(c2)C(C)(C)c2cc(N(c4ccc(-c5c(C)cccc5C)cc4)c4ccc5c(c4)C(C)(C)c4ccccc4-5)ccc2-3)cc1 [Example 3] | 30 mg/mL (≈ 30.9 mM) |
| Cc1cccc(C)c1-c1ccc(N(c2ccc(-c3ccccc3)cc2)c2ccc(-c3ccc(N(c4ccc(-c5ccccc5)cc4)c4ccc(-c5c(C)cccc5C)cc4)cc3)cc2)cc1 [Comparison Example 3, reference compound] | 2.9 mg/mL (≈ 3.42 mM) |
| Cc1cc(N(c2ccc3c(c2)C(C)(C)c2ccccc2-3)c2ccc3c(c2)C(C)(C)c2ccccc2-3)ccc1-c1ccc(N(c2ccc3c(c2)C(C)(C)c2ccccc2-3)c2ccc3c(c2)C(C)(C)c2ccccc2-3)cc1 [Example 4] | 35 mg/mL (≈ 36.2 mM) |

Results, then the compound that gave them:

| solubility | Structure (SMILES) |
| --- | --- |
| 5.2 mg/mL (≈ 6.24 mM) | CC1(C)c2cc(N(c3ccc(-c4ccccc4)cc3)c3ccc(-c4ccccc4)cc3)ccc2-c2ccc(N(c3ccc(-c4ccccc4)cc3)c3ccc(-c4ccccc4)cc3)cc21 [Comparison Example 2, reference compound] |
| 22 mg/mL (≈ 24.4 mM) | Cc1cc(-c2ccc(N(c3ccc(-c4ccccc4)cc3)c3ccc4c(c3)C(C)(C)c3ccccc3-4)cc2)cc(C)c1N(c1ccc(-c2ccccc2)cc1)c1ccc2c(c1)C(C)(C)c1ccccc1-2 [Example 1] |
| 2.2 mg/mL (≈ 3.07 mM) | c1ccc(-c2ccc(N(c3ccc(-c4ccccc4)cc3)c3ccc(N(c4ccc(-c5ccccc5)cc4)c4ccc(-c5ccccc5)cc4)cc3)cc2)cc1 [Comparison Example 4, reference compound] |
| 28 mg/mL (≈ 31.5 mM) | Cc1cccc(-c2ccc(N(c3ccc(-c4cccc(C)c4)cc3)c3ccc4c(c3)C(C)(C)c3cc(N(c5ccc(-c6cccc(C)c6)cc5)c5ccc(-c6cccc(C)c6)cc5)ccc3-4)cc2)c1 [Example 2] |
